In the assay the target is Histone acetyltransferase RTT109 (Candida albicans (strain SC5314 / ATCC MYA-2876)) (UniProt Q5AAJ8). The assay is described as follows: C. albicans Rtt109 HAT inhibition curves – biochemical, cherry-picked hits, plate reader, dose response (AID 588764). Conditions: Rtt109/Vps75 HAT activity; for activity change, negative = inhibition: at 19.5 µM (top of the series).

Inconclusive results are not listed. The source made the active and inactive calls. No rule for the calls is given here.

Consider 81 compounds from PubChem BioAssay AID588764 (Broad Institute, 2011).

Histone acetyltransferase RTT109 (Candida albicans (strain SC5314 / ATCC MYA-2876)), sequence (Q5AAJ8 whole entry, looked up): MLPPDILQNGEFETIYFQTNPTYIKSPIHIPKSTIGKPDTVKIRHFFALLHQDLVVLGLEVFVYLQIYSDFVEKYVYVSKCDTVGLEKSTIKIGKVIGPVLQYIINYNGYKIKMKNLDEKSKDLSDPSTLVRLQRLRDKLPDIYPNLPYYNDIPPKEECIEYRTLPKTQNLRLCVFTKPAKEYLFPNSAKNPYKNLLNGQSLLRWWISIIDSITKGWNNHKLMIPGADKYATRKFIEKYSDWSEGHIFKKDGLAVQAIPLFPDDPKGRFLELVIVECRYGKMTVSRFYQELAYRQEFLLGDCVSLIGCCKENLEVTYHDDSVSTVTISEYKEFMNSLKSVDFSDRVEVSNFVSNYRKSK

Take `Cc1cc(OCc2ccc(C(=O)NN=C3CCCC3)cc2)ccc1Cl`: the “activity change, negative = inhibition” value was “inactive”.
With `CCCCS(=O)(=O)c1sc2nc(C)cc(C)c2c1N`, the “activity change, negative = inhibition” value was “inactive”.
On to `CCOc1ccc(S(=O)(=O)NCCC(=O)Nc2cccc(C(=O)OC)c2)cc1`, for which the “activity change, negative = inhibition” value was “inactive”.
With `CCCCS(=O)(=O)/C=C\C=C/S(=O)(=O)CCCC`, the AC50 is 7.19 µM.
`CC(C(=O)NC1CCS(=O)(=O)C1)N1C(=O)/C(=C/c2ccc(Cl)cc2)SC1=S` (stereo unspecified): the “activity change, negative = inhibition” value is “inactive”.
Regarding `COc1ccc(/C=N/NC(=O)COc2ccc(Cl)cc2Cl)cc1Cn1nc(C)cc1C`, the “activity change, negative = inhibition” value is “inactive”.
Turning to `O=c1c2cc(F)ccc2sn1-c1ccccc1`, the AC50 is 1.81 µM.
For the compound `O=C(CCn1c(=O)c2ccccc2n(Cc2cccc([N+](=O)[O-])c2)c1=O)N1CCc2ccccc2C1`, the “activity change, negative = inhibition” value is “inactive”.
`CN1CCc2cccc3c2[C@H]1Cc1ccc(O)c(O)c1-3`: the AC50 was 18.4 µM.
As for `CCOC(=O)c1c(C)n(-c2ccc(C)cc2)c2ccc(OCC(O)CNCC3CCCO3)cc12` (stereo unspecified), the “activity change, negative = inhibition” value is “inactive”.
The same measure, in the same setting: for `Cc1ccc(NC(=O)OCc2cc(-c3ccccc3)on2)cc1` the value was “inactive”; for `COc1cc(NC(=O)COc2c(C)cc(C)cc2[N+](=O)[O-])c(OC)cc1Cl`, “inactive”.
With `CCCC1(c2ccccc2)NC(=O)N(CC(=O)N(C)Cc2c(F)cccc2Cl)C1=O` (stereo unspecified), the AC50 was 2.79 µM.
Turning to `CN(C)CCCN(C(=O)CCOc1ccccc1)c1nc2c(F)cccc2s1`, the “activity change, negative = inhibition” value is “inactive”.
As to `CC(C(=O)NC1C=CS(=O)(=O)C1)N1C(=O)/C(=C/c2ccc(Cl)cc2)SC1=S` (stereo unspecified), the “activity change, negative = inhibition” value is “inactive”.
On to `CCOC(=O)C1=C(C)NC(C)=C(C(=O)OCC)C1C(=O)OCC(=O)NCCc1ccc(S(N)(=O)=O)cc1`, for which the “activity change, negative = inhibition” value was “inactive”.
For `O=C(NCc1ccc(Cl)cc1)c1ccccc1CCc1ccccc1`, the “activity change, negative = inhibition” value was “inactive”.
The same measure, in the same setting: for `O=C(NNc1ccccc1)C(=O)NNS(=O)(=O)c1ccc(CCCl)cc1` the value was “inactive”; for `COc1ccc(NC(=O)CSc2nnc(-c3ccccc3)n2N)cc1`, “inactive”.
On to `O=C(O)c1ccc(-c2ccc(/C=N/Nc3ccc([N+](=O)[O-])cc3)o2)cc1`, for which the “activity change, negative = inhibition” value was “inactive”.
Take `O=C(C1CCOCC1)N1CCCC(N2CCN(c3cccc(C(F)(F)F)c3)CC2)C1` (stereo unspecified): the “activity change, negative = inhibition” value was “inactive”.
For `COc1ccc2nc(NC(=O)CN3C(=O)NC4(CCCCC4)C3=O)sc2c1`, the “activity change, negative = inhibition” value was “inactive”.
On the same count and under the same terms, under `O=C1Nc2cc(C(=O)NCCCN3CCCC3)ccc2S/C1=C\c1ccccc1` stands “inactive”.
As for `CCC(=O)Nc1cc(C)c(OC)c(C)c1`, the “activity change, negative = inhibition” value is “inactive”.
`Cc1cc(CN2C(=O)c3ccccc3C2=O)no1`: the “activity change, negative = inhibition” value was “inactive”.
With `CCOC(=O)C1=C(C)NC(=S)N(C(C)=O)C1c1ccc(Cl)cc1` (stereo unspecified), the “activity change, negative = inhibition” value is “inactive”.
`Cc1cccc2sc(N(CCCN(C)C)C(=O)CCc3ccccc3)nc12`: the “activity change, negative = inhibition” value was “inactive”.
On the same count and under the same terms, under `O=S(=O)(Nc1ccc(-c2nnc(SCc3ccc(Cl)cc3)o2)cc1)c1ccccc1` stands “inactive”.
Consider `Cc1ccccc1Nc1nnc(SCC2CCCCO2)s1` (stereo unspecified), for which the “activity change, negative = inhibition” value is “inactive”.
Regarding `Fc1ccccc1C1CC(c2ccco2)=Nc2ccccc2S1` (stereo unspecified), the “activity change, negative = inhibition” value was “inactive”.
Same read-out and setting: for `COc1ccc(S(=O)(=O)N2CCN(c3ccccn3)CC2)cc1OC` the value was “inactive”; for `CC1CCN(c2nc(CN3CCCCC3)nc3scc(-c4ccccc4)c23)CC1`, “inactive”; for `COCCNC(=O)C(c1ccc(O)cc1)N(Cc1ccccc1)C(=O)CCC(=O)Nc1ccccn1` (stereo unspecified), “inactive”.
Regarding `CN(CC(=O)Nc1ccc(F)cc1)C(=O)COc1ccccc1Cc1ccccc1`, the “activity change, negative = inhibition” value is “inactive”.
As to `CCOC(=O)c1ccc(N2C(=O)c3n[nH]c(C)c3C2c2ccc(OC)cc2)cc1` (stereo unspecified), the “activity change, negative = inhibition” value was “inactive”.
`C[C@H](NC(=O)c1ccco1)C(=O)Nc1ccc(S(=O)(=O)N2CCCC2)cc1`: the “activity change, negative = inhibition” value is “inactive”.
Take `C[C@]12CC[C@@H]3c4cc(O)c(O)cc4CC[C@H]3[C@@H]1CC[C@@H]2O`: the AC50 is 9.63 µM.
In the case of `CCOC(=O)C1CCN(S(=O)(=O)c2ccc3c(c2)CC(C)N3C(=O)C2CCC2)CC1` (stereo unspecified), the “activity change, negative = inhibition” value is “inactive”.
With `COc1ccc(N2CCN(C(=O)CSc3nnc(-c4cccnc4)n3-c3ccccc3)CC2)cc1`, the “activity change, negative = inhibition” value is “inactive”.
Turning to `COc1ccccc1CC(=O)N1CCN(S(=O)(=O)c2ccccc2F)CC1`, the “activity change, negative = inhibition” value was “inactive”.
For `Cc1cccc(-n2c(O)c(/C=N/NC(=O)c3ccccc3Cl)c3ccccc3c2=O)n1`, the “activity change, negative = inhibition” value was “inactive”.
With `CCOC(=O)c1c(C)n(-c2ccc(C)cc2)c2ccc(OCC(O)CNCCCO)cc12` (stereo unspecified), the “activity change, negative = inhibition” value is “inactive”.
On the same count and under the same terms, under `CN(CC(=O)Nc1ccc(Cl)cc1)C(=O)c1cccc(S(=O)(=O)NCc2ccccc2)c1` stands “inactive”; under `CCN1C=CC(=C2C(=O)c3ccccc3C2=O)C=C1`, “inactive”.
Take `CCN1/C(=C/c2ccc3cc(C)cc(C)c3[n+]2CC)Sc2cc(C)ccc21`: the “activity change, negative = inhibition” value was “inactive”.
On to `CC(=O)Nc1ccc(OCC(=O)NCc2ccccc2)cc1`, for which the “activity change, negative = inhibition” value is “inactive”.
Take `Cc1ccc(CN(C(=O)c2ccccc2C)C2CCS(=O)(=O)C2)o1` (stereo unspecified): the “activity change, negative = inhibition” value was “inactive”.
In the case of `O=C(O)C(Cc1ccccc1)N1C(=O)/C(=C/c2ccccc2)SC1=S` (stereo unspecified), the “activity change, negative = inhibition” value is “inactive”.
`Cc1ccc(/C=C/C(=O)NCc2ccc(S(N)(=O)=O)cc2)o1`: the AC50 was 10.7 µM.
Turning to `Cc1ccccc1/C=C/C(=O)NCC(=O)N1CCC(N(C)C2CCCCC2C)CC1` (stereo unspecified), the “activity change, negative = inhibition” value is “inactive”.
Take `CN(C)C(CNC(=O)c1ccc(C(=O)c2ccccc2)cc1)c1ccccc1` (stereo unspecified): the “activity change, negative = inhibition” value is “inactive”.
For `CCOC(=O)c1c(C)oc2c1c(C=NCCO)c(O)c1ccccc12`, the “activity change, negative = inhibition” value is “inactive”.
Regarding `Cc1ccccc1N1C(S)=C(C#N)C(=O)NC12CCCCC2`, the “activity change, negative = inhibition” value was “inactive”.
Same read-out and setting: under `CCn1c(CCn2c3ccccc3c3ccccc32)n[nH]c1=S` stands “inactive”.
Still for that read-out and setting: under `CCCC(CCC)C(=O)OC[N+](C)(C)CCOC(=O)C(O)(c1ccccc1)C1CCCC1` (stereo unspecified) stands “inactive”; under `COc1ccc(C2CC(=O)C(C=NCCO)=C(O)C2)cc1` (stereo unspecified), “inactive”.
On to `CCN(CC)S(=O)(=O)c1ccc(C(=O)Nc2cc(S(=O)(=O)N3CCOCC3)ccc2N2CCN(C)CC2)cc1`, for which the “activity change, negative = inhibition” value is “inactive”.
The same measure, in the same setting: under `Nc1ccc(Nc2ccncc2[N+](=O)[O-])cc1` stands “inactive”; under `COc1cc(/C=N/N=C(N)N)ccc1OCc1ccccc1Cl`, “inactive”.
For the compound `CC[C@@H](C)[C@H](NC(=O)OC(C)(C)C)c1nnc(S(=O)(=O)Cc2cc(C)ccc2C)o1`, the AC50 is 12.6 µM.
On the same count and under the same terms, under `O=C1C(Cl)=C(N2CCOCC2)C(=O)N1c1ccccc1Cl` stands 14.8 µM.
For `CC(C)(C)c1cc(C(c2cccnc2)N2CCN(CCO)CC2)cc(C(C)(C)C)c1O` (stereo unspecified), the AC50 is 9.87 µM.
As for `COc1ccc(Br)cc1CN(C)C(C)C(=O)Nc1cccc(C(C)=O)c1` (stereo unspecified), the “activity change, negative = inhibition” value was “inactive”.
In the case of `O=C(CSC1=NCCN1)Nc1cccc([N+](=O)[O-])c1`, the “activity change, negative = inhibition” value was “inactive”.
As for `O=C(Nc1ccccc1Cl)/C(Cl)=C(\Cl)S(=O)c1ccccc1` (stereo unspecified), the AC50 was 8.62 µM.
Regarding `CCOC(=O)c1cc2c(N)c(C(=O)c3cc(C#N)c(SC)nc3C)sc2nc1C`, the “activity change, negative = inhibition” value was “inactive”.
The same measure, in the same setting: for `O=c1[nH]c2ccccc2c2oc(CCl)nc12` the value was “inactive”.
On the same count and under the same terms, for `COc1cccc(OC)c1C(=O)Nc1cccc(-c2ccc(N3CCOCC3)nn2)c1` the value was “inactive”; for `O=C(Nc1ccc2oc(-c3ccncc3)nc2c1)c1ccc2c(c1)OCCO2`, “inactive”.
In the case of `COc1cc(OC)c(NC(=O)CN(C)S(=O)(=O)c2ccc(-c3ccc(=O)[nH]n3)s2)cc1Cl`, the “activity change, negative = inhibition” value was “inactive”.
Consider `O=C(O)c1cccc2c1NC(C(=O)O)C1CC(Sc3ccccc3[N+](=O)[O-])C(Cl)C21` (stereo unspecified), for which the “activity change, negative = inhibition” value is “inactive”.
Take `NNc1n[nH]c(=S)n1N`: the “activity change, negative = inhibition” value was “inactive”.
Same read-out and setting: for `CC(=O)/C(=N/Nc1ccccc1)Sc1nnc(C(O)c2ccccc2)n1-c1ccccc1` (stereo unspecified) the value was “inactive”.
With `O=C(O)c1ccccc1NS(=O)(=O)c1cccc(-n2sc3ccccc3c2=O)c1`, the AC50 was 3.49 µM.
Regarding `Cc1ccc(/C=C2\SC(=S)N(C(Cc3ccccc3)C(=O)O)C2=O)cc1` (stereo unspecified), the “activity change, negative = inhibition” value is “inactive”.
For the compound `CCCCCCCCCCCCCCCC[N+](C)(C)CCN(Cc1ccc(OC)cc1)c1ncccn1`, the concentration at half-maximal activity (AC50) is 16.1 µM.
Regarding `Cc1[nH]n(-c2ccccc2)c(=O)c1C=NC1CCCCC1`, the “activity change, negative = inhibition” value was “inactive”.
As to `Cc1cc(C)nc(N2CCC(C(=O)Nc3ccc4c(c3)OCCO4)CC2)n1`, the “activity change, negative = inhibition” value is “inactive”.
On to `CCOc1cc(S(=O)(=O)N2CCC(Cc3ccccc3)CC2)c(OCC)cc1-n1cnnn1`, for which the “activity change, negative = inhibition” value is “inactive”.
For the compound `CCc1cccc(NC(=O)C2CCCN(c3ncnc4c3nc3n4CCCCC3)C2)c1` (stereo unspecified), the “activity change, negative = inhibition” value was “inactive”.
`COc1cccc(/C=C2/Sc3ccc(C(=O)NCCCN4CCCC4)cc3NC2=O)c1`: the “activity change, negative = inhibition” value is “inactive”.
